Experimental data from ChEMBL document CHEMBL5120813, “Polysubstituted Cyclopentene Benzamides and Dianthramide Alkaloids from Delphinium anthriscifolium Hance” (2022).

System: RAW264.7
Test: Antiinflammatory activity in mouse RAW264.7 assessed as inhibition of LPS-induced NO production preincubated for 30 mins followed by LPS stimulation measured after 24 hrs by Griess reagent based assay relative to control
Assay type: functional
Set-up: concentration or dose not given beside the values
Conditions: 0.5 h

SMILES	inhibition (INH) [%]
COC(=O)c1cc(O)ccc1NC(=O)c1cccc(O)c1OC	61.2
COC(=O)c1c(NC(=O)c2cccc(O)c2OC)ccc(O)c1OC	43
COC(=O)c1cc(O)c(O)cc1NC(=O)c1ccccc1O	57.6
O=c1c(O)c(-c2ccc(O)c(O)c2)oc2cc(O)cc(O)c12 [QUERCETIN]	48.6
COC(=O)c1cc(O)c(O)cc1NC(=O)c1cc(O)ccc1OC	78.8
COC(=O)c1cc(O)c(O)cc1NC(=O)c1cc(O)ccc1O	40.3
